# Source: patent US10758534B2 (Vertex Pharmaceuticals Incorporated, priority 2014, dated 2020)
# Target: T1, F508del (Homo sapiens, UniProt P13569, DEL508-508)
# T1 construct: expressed in transfected cells
# Assay: Protocol 2: FRET membrane potential optical assay (VIPR), identification of correction compounds
# Format: cell-based
# Conditions: Table 3; compounds of Table 1 as modulators of CFTR activity; protocol not stated
# Outline: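 Correction of the F508del trafficking defect is scored as forskolin (10 μM)/genistein (20 μM)-stimulated Cl^− efflux in NIH3T3 mouse fibroblasts after a 16 hr, 37° C. compound exposure. Depolarization was followed optically using voltage-sensing FRET dyes.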
# T1 sequence (P13569 with tags, fused parts or gaps DEL508-508): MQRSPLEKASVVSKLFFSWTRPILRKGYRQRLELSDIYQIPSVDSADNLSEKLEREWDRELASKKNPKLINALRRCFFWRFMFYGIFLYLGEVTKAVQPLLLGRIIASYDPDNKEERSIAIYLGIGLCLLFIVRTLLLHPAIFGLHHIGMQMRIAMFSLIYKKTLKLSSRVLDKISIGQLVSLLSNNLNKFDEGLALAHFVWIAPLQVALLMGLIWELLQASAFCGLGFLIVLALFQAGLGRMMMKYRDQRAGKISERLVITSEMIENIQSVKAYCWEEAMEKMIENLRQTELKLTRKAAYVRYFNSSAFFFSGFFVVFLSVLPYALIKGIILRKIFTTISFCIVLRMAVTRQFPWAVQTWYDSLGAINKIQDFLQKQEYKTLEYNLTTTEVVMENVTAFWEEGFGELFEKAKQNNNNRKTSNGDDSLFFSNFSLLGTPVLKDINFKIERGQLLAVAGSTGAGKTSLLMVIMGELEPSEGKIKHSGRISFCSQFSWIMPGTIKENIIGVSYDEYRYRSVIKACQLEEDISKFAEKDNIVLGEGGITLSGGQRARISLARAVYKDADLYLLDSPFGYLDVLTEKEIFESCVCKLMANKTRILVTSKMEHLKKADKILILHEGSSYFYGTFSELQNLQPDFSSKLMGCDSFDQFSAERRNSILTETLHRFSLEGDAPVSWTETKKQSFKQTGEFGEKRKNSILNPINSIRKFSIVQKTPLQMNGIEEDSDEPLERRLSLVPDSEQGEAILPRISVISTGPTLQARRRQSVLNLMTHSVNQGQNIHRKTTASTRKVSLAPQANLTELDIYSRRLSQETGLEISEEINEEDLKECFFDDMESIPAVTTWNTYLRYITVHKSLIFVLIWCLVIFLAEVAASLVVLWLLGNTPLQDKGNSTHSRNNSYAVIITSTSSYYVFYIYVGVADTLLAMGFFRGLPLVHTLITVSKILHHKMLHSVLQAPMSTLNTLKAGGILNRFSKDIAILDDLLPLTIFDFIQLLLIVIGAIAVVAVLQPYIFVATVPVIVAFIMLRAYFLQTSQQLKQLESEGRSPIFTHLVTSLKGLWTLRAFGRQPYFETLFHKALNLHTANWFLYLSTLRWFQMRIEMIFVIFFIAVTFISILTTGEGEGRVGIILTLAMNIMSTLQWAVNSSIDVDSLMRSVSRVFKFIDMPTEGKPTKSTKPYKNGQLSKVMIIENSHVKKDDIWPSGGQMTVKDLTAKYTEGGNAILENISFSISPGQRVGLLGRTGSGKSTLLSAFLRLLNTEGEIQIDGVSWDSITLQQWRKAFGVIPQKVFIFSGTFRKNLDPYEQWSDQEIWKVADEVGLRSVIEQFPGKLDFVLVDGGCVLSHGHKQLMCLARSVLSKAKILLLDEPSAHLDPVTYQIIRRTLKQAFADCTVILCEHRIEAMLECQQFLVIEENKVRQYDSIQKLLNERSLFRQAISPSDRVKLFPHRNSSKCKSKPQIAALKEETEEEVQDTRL
row,EC30,Compound
1,+++ (“+++” means <3 uM),"CCC(c1ccccc1)n1nc(C(C)(C)C)cc1C(=O)NS(=O)(=O)c1cccc(N)c1 (centres unmarked) [Compound 165, N-(3-aminophenyl)sulfonyl-5-tert-butyl-2-(1-phenylpropyl)pyrazole-3-carboxamide]"
2,+++ (“+++” means <3 uM),"Cc1cccc(C)c1Cn1nc(-c2cccc(F)c2)cc1C(=O)NS(=O)(=O)c1ccccc1 [Compound 166, N-(benzenesulfonyl)-2-[(2,6-dimethylphenyl)methyl]-5-(3-fluorophenyl)pyrazole-3-carboxamide]"
3,++ (“++” means between 3 uM and 10 uM),"Cc1cc(C)c(Cn2nc(CC(C)C)cc2C(=O)NS(=O)(=O)c2cccc(N)c2)c(C)c1 [Compound 167, N-(3-aminophenyl)sulfonyl-5-isobutyl-2-[(2,4,6-trimethylphenyl)methyl]pyrazole-3-carboxamide]"
4,+++ (“+++” means <3 uM),"COc1cccc2c1cc(C(=O)NS(=O)(=O)c1cccc(N)c1)n2Cc1c(C)cccc1C [Compound 168, N-(3-aminophenyl)sulfonyl-1-[(2,6-dimethylphenyl)methyl]-4-methoxy-indole-2-carboxamide]"
5,+++ (“+++” means <3 uM),"Cc1cccc(C)c1Cn1nc(C(C)(C)C)cc1C(=O)NS(=O)(=O)c1c(F)cccc1F [Compound 170, 5-tert-butyl-N-(2,6-difluorophenyl)sulfonyl-2-[(2,6-dimethylphenyl)methyl]pyrazole-3-carboxamide]"
6,+++ (“+++” means <3 uM),"Cc1cc(C)c(Oc2nc(C3CCC(C)CC3)ccc2C(=O)NS(=O)(=O)c2cccc(N)n2)c(C)c1 (centres unmarked) [Compound 172, N-[(6-amino-2-pyridyl)sulfonyl]-6-(4-methylcyclohexyl)-2-(2,4,6-trimethylphenoxy)pyridine-3-carboxamide]"
7,++ (“++” means between 3 uM and 10 uM),"Cc1cc(C)c(Cn2nc(C(C)(C)C)cc2C(=O)NS(=O)(=O)c2cccc(N)n2)c(C)c1 [Compound 173, N-[(6-amino-2-pyridyl)sulfonyl]-5-tert-butyl-2-[(2,4,6-trimethylphenyl)methyl]pyrazole-3-carboxamide]"
8,++ (“++” means between 3 uM and 10 uM),"COc1cccc(S(=O)(=O)NC(=O)C2c3ccccc3CN2Cc2c(C)cc(C)cc2C)n1 (centres unmarked) [Compound 174, N-[(6-methoxy-2-pyridyl)sulfonyl]-2-[(2,4,6-trimethylphenyl)methyl]isoindoline-1-carboxamide]"
9,++ (“++” means between 3 uM and 10 uM),"Cc1cc(C)c(Oc2nc(C(F)(F)F)ccc2C(=O)NS(=O)(=O)c2cccc(N)n2)c(C)c1 [Compound 175, N-[(6-amino-2-pyridyl)sulfonyl]-6-(trifluoromethyl)-2-(2,4,6-trimethylphenoxy)pyridine-3-carboxamide]"
10,+++ (“+++” means <3 uM),"COc1cccc(-c2cc(C(=O)NS(=O)(=O)c3ccccc3)n(Cc3c(C)cccc3C)n2)c1 [Compound 176, N-(benzenesulfonyl)-2-[(2,6-dimethylphenyl)methyl]-5-(3-methoxyphenyl)pyrazole-3-carboxamide]"
11,++ (“++” means between 3 uM and 10 uM),"Cc1cc(-c2nc(C(C)(C)C)ccc2C(=O)NS(=O)(=O)c2cccc(N)c2)ccc1F [Compound 177, N-(3-aminophenyl)sulfonyl-6-tert-butyl-2-(4-fluoro-3-methyl-phenyl)pyridine-3-carboxamide]"
12,+++ (“+++” means <3 uM),"Cc1cccc(C)c1Cn1nc(-c2cccc(N(C)C)c2)cc1C(=O)NS(=O)(=O)c1ccccc1 [Compound 178, N-(benzenesulfonyl)-5-[3-(dimethylamino)phenyl]-2-[(2,6-dimethylphenyl)methyl]pyrazole-3-carboxamide]"
13,+++ (“+++” means <3 uM),"CCc1ccc2c(c1)cc(C(=O)NS(=O)(=O)c1cccc(N)n1)n2Cc1c(C)cc(C)cc1C [Compound 179, N-[(6-amino-2-pyridyl)sulfonyl]-5-ethyl-1-[(2,4,6-trimethylphenyl)methyl]indole-2-carboxamide]"
14,+++ (“+++” means <3 uM),"Cc1cc(C)c(Cn2nc(C(C)(C)C)cc2C(=O)NS(=O)(=O)c2cccc3[nH]ccc23)c(C)c1 [Compound 180, 5-tert-butyl-N-(1H-indol-4-ylsulfonyl)-2-[(2,4,6-trimethylphenyl)methyl]pyrazole-3-carboxamide]"
15,+++ (“+++” means <3 uM),"Cc1cc(C)c(Cn2c(C(=O)NS(=O)(=O)c3cccc(N)c3)cc3c(F)cccc32)c(C)c1 [Compound 181, N-(3-aminophenyl)sulfonyl-4-fluoro-1-[(2,4,6-trimethylphenyl)methyl]indole-2-carboxamide]"
16,+++ (“+++” means <3 uM),"Cc1cc(C)c(Oc2nc3c(cc2C(=O)NS(=O)(=O)c2cccc(N)n2)CCCC3(C)C)c(C)c1 [Compound 182, N-[(6-amino-2-pyridyl)sulfonyl]-8,8-dimethyl-2-(2,4,6-trimethylphenoxy)-6,7-dihydro-5H-quinoline-3-carboxamide]"
17,+++ (“+++” means <3 uM),"COc1ccccc1S(=O)(=O)NC(=O)c1cc2ccccc2n1Cc1c(C)cc(C)cc1C [Compound 183, N-(2-methoxyphenyl)sulfonyl-1-[(2,4,6-trimethylphenyl)methyl]indole-2-carboxamide]"
18,++ (“++” means between 3 uM and 10 uM),"Cc1cc(C)c(Cn2c(C(=O)NS(=O)(=O)c3cccc(N)c3)cc3cccnc32)c(C)c1 [Compound 184, N-(3-aminophenyl)sulfonyl-1-[(2,4,6-trimethylphenyl)methyl]pyrrolo[2,3-b]pyridine-2-carboxamide]"
19,+++ (“+++” means <3 uM),"Cc1cccc(C)c1Cn1nc(C(C)(C)C)cc1C(=O)NS(=O)(=O)c1cccc(N)c1 [Compound 185, N-(3-aminophenyl)sulfonyl-5-tert-butyl-2-[(2,6-dimethylphenyl)methyl]pyrazole-3-carboxamide]"
20,+++ (“+++” means <3 uM),"CC(c1ccccc1)n1c(C(=O)NS(=O)(=O)c2cccc(N)c2)cc2c(F)cccc21 (centres unmarked) [Compound 186, N-(3-aminophenyl)sulfonyl-4-fluoro-1-(1-phenylethyl)indole-2-carboxamide]"
21,++ (“++” means between 3 uM and 10 uM),"CC(c1ccccc1)N1Cc2ccccc2C1C(=O)NS(=O)(=O)c1cccc(N)c1 (centres unmarked) [Compound 187, N-(3-aminophenyl)sulfonyl-2-(1-phenylethyl)isoindoline-1-carboxamide]"
22,+++ (“+++” means <3 uM),"Cc1cc(C)c(Cn2nc(C(C)(C)C)cc2C(=O)NS(=O)(=O)c2cccc3c2ccn3CCO)c(C)c1 [Compound 188, 5-tert-butyl-N-[1-(2-hydroxyethyl)indol-4-yl]sulfonyl-2-[(2,4,6-trimethylphenyl)methyl]pyrazole-3-carboxamide]"
23,+++ (“+++” means <3 uM),"CC(C)(C)c1cc(C(=O)NS(=O)(=O)c2cccc(N)c2)n(Cc2c(Cl)cccc2C(F)(F)F)n1 [Compound 189, N-(3-aminophenyl)sulfonyl-5-tert-butyl-2-[[2-chloro-6-(trifluoromethyl)phenyl]methyl]pyrazole-3-carboxamide]"
24,+++ (“+++” means <3 uM),"CCOc1ccc(-c2ccc(C(=O)NS(=O)(=O)c3cc[nH]n3)c(Oc3c(C)cc(C)cc3C)n2)cc1 [Compound 190, 6-(4-ethoxyphenyl)-N-(1H-pyrazol-3-ylsulfonyl)-2-(2,4,6-trimethylphenoxy)pyridine-3-carboxamide]"
25,+++ (“+++” means <3 uM),"COc1ncccc1S(=O)(=O)NC(=O)c1ccc(C(C)(C)C)nc1Oc1c(C)cc(C)cc1C [Compound 191, 6-tert-butyl-N-[(2-methoxy-3-pyridyl)sulfonyl]-2-(2,4,6-trimethylphenoxy)pyridine-3-carboxamide]"
26,+++ (“+++” means <3 uM),"CC(c1ccccc1)n1c(C(=O)NS(=O)(=O)c2ccncc2)cc2c(F)cccc21 (centres unmarked) [Compound 192, 4-fluoro-1-(1-phenylethyl)-N-(4-pyridylsulfonyl)indole-2-carboxamide]"
27,+++ (“+++” means <3 uM),"Cc1ccccc1N(C)c1nc(C(C)(C)C)ccc1C(=O)NS(=O)(=O)c1cccc(N)c1 [Compound 193, N-(3-aminophenyl)sulfonyl-6-tert-butyl-2-(N,2-dimethylanilino)pyridine-3-carboxamide]"
28,+++ (“+++” means <3 uM),"Cc1cc(C)c(Cn2c(C(=O)NS(=O)(=O)c3cccc(N)c3)cc3cccc(C)c32)c(C)c1 [Compound 194, N-(3-aminophenyl)sulfonyl-7-methyl-1-[(2,4,6-trimethylphenyl)methyl]indole-2-carboxamide]"
29,+++ (“+++” means <3 uM),"Cc1cc(C)c(Cn2cc(C(C)(C)C)cc2C(=O)NS(=O)(=O)c2cccc(N)c2)c(C)c1 [Compound 195, N-(3-aminophenyl)sulfonyl-4-tert-butyl-1-[(2,4,6-trimethylphenyl)methyl]pyrrole-2-carboxamide]"

row,Compound,EC30
1,"Cc1cc(C)c(Oc2nc(-c3cc(F)cc(OCC(C)C)c3)ccc2C(=O)NS(=O)(=O)c2ccc[nH]c2=O)c(C)c1 [Compound 169, 6-(3-fluoro-5-isobutoxy-phenyl)-N-[(2-oxo-1H-pyridin-3-yl)sulfonyl]-2-(2,4,6-trimethylphenoxy)pyridine-3-carboxamide]",+++ (“+++” means <3 uM)
2,"CC(C)COc1cc(F)cc(-c2ccc(C(=O)NS(=O)(=O)c3cccc(N)n3)c(N3[C@H](C)CC[C@@H]3C)n2)c1 [Compound 171, N-[(6-amino-2-pyridyl)sulfonyl]-2-[(2S,5R)-2,5-dimethylpyrrolidin-1-yl]-6-(3-fluoro-5-isobutoxy-phenyl)pyridine-3-carboxamide]",+++ (“+++” means <3 uM)
3,"Cc1cc(C)c(Oc2nc(-c3cc(F)cc(OCC(C)C)c3)ccc2C(=O)NS(=O)(=O)c2cccc(N)n2)c(C)c1 [Compound 196, N-[(6-amino-2-pyridyl)sulfonyl]-6-(3-fluoro-5-isobutoxy-phenyl)-2-(2,4,6-trimethylphenoxy)pyridine-3-carboxamide]",+++ (“+++” means <3 uM)
